The values that follow come from ChEMBL document CHEMBL1201862, “PubChem BioAssay data set” (2004).

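Briefly, cells in 96-well plates were exposed to five compound concentrations for 48 h, and endpoints were estimated by linear interpolation. Here, GI50 denotes the concentration required for 50% inhibition of growth.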 Calls of active or inactive are those of the source. Rule as the data show it: active = GI50 up to about 1.1 µM and inactive = higher. Bounds are passed on as bounds.

Test systems include DMS-273; HOP-18; KM-20L2; LXFL 529; M19-MEL; RXF 631; SNB-78; XF498; DLD-1.
Holding throughout (test): NCI tumour cell line growth inhibition, 48 h

On to `CC(=O)Nc1ccccc1Sc1ccccc1`, for which the GI50 in the assay on DMS-273, with HOP-18, with KM-20L2, in the assay on LXFL 529, in the assay on M19-MEL and with RXF 631 was > 100 µM (inactive) each time. Further, the GI50 in the assay on SNB-78 and with XF498 was > 100 µM (inactive) each time.

For the compound `Cc1nc2ccccc2c(=O)n1/N=C(\N=N\c1cc(Cl)ccc1Cl)c1ccccc1`, the GI50 in the assay with DLD-1 is 45.6 µM (inactive); with DMS-273 it was 43.3 µM (inactive); in the assay on HOP-18, 14.3 µM (inactive); in the assay with KM-20L2 it was 0.412 µM (active); in the assay with LXFL 529, 36.5 µM (inactive); with M19-MEL, 77.4 µM (inactive). Moreover, the GI50 in the assay with RXF 631 was > 10 µM (inactive); in the assay with XF498, 61.2 µM (inactive).

`CC(C)C(=O)Nc1nc2c(ncn2C2OC(CO)C(O)C2O)c(=O)[nH]1` (centres undefined): the GI50 in the assay on DLD-1, in the assay on DMS-273, in the assay with HOP-18, in the assay on KM-20L2, in the assay on LXFL 529 and in the assay on M19-MEL was > 100 µM (inactive) each time. Also, the GI50 in the assay with RXF 631, with SNB-78 and with XF498 was > 100 µM (inactive) in each case.

As for `O=NN(CCCl)C(=O)NCCCl` [CARMUSTINE], the GI50 is 76.6 µM (inactive) in the assay with DLD-1; 74 µM (inactive) in the assay with DMS-273; 91.4 µM (inactive) in the assay with HOP-18; 94 µM (inactive) in the assay with KM-20L2; 71.4 µM (inactive) in the assay with LXFL 529; 77.6 µM (inactive) with M19-MEL. The GI50 is 80.2 µM (inactive) with RXF 631, 88.9 µM (inactive) in the assay with SNB-78 and 68.1 µM (inactive) in the assay on XF498.
